Measured values taken from the supplement of paper PMC8612539.
≈ marks a conversion by molar mass, not a printed value.

Test system: Escherichia coli
Test: minimum inhibitory concentration (MIC)
Description: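 Broth microdilution MIC (Sensititre BOPO7F bovine plate, CLSI methods) of 19 antimicrobials against field isolates of P. multocida, M. haemolytica, H. somni (deep nasopharyngeal swabs) and E. coli, Enterococcus spp. (rectal swabs) from weaned dairy heifers. Incubation 16-24 h at 35 C. MIC is the lowest concentration preventing visible growth. Values with <= or > lie at the tested range limits. Trimethoprim-sulfamethoxazole is given as the trimethoprim component of a 1:19 mixture.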

CCCN1C[C@H](C)[C@@H](O)[C@](C)(O)[C@@H](CC)OC(=O)[C@H](C)[C@@H](O[C@H]2C[C@@](C)(OC)[C@@H](O)[C@H](C)O2)[C@H](C)[C@@H](O[C@@H]2O[C@H](C)C[C@H](N(C)C)[C@H]2O)[C@](C)(O)C[C@H]1C [Gamithromycin]
Conditions	minimum inhibitory concentration [µg/mL]
isolate (source animal id): 8	8 (≈ 10.3 µM)
isolate (source animal id): 9	> 8
isolate (source animal id): 10	8 (≈ 10.3 µM)
isolate (source animal id): 11	8 (≈ 10.3 µM)
isolate (source animal id): 12	8 (≈ 10.3 µM)
isolate (source animal id): 13	8 (≈ 10.3 µM)
isolate (source animal id): 14	> 8
isolate (source animal id): 15	4 (≈ 5.15 µM)
isolate (source animal id): 16	8 (≈ 10.3 µM)
isolate (source animal id): 98	8 (≈ 10.3 µM)
isolate (source animal id): 99	8 (≈ 10.3 µM)
isolate (source animal id): 100	4 (≈ 5.15 µM)
isolate (source animal id): 101	8 (≈ 10.3 µM)
isolate (source animal id): 102	8 (≈ 10.3 µM)
isolate (source animal id): 103	8 (≈ 10.3 µM)
isolate (source animal id): 104	8 (≈ 10.3 µM)
isolate (source animal id): 105	8 (≈ 10.3 µM)
isolate (source animal id): 106	> 8
isolate (source animal id): 107	8 (≈ 10.3 µM)
isolate (source animal id): 108	8 (≈ 10.3 µM)
isolate (source animal id): 109	8 (≈ 10.3 µM)
isolate (source animal id): 110	4 (≈ 5.15 µM)
isolate (source animal id): 111	4 (≈ 5.15 µM)
isolate (source animal id): 112	8 (≈ 10.3 µM)
isolate (source animal id): 113	4 (≈ 5.15 µM)
isolate (source animal id): 114	8 (≈ 10.3 µM)
isolate (source animal id): 115	> 8
isolate (source animal id): 116	4 (≈ 5.15 µM)
isolate (source animal id): 117	> 8
isolate (source animal id): 118	8 (≈ 10.3 µM)
isolate (source animal id): 119	> 8
isolate (source animal id): 120	> 8
isolate (source animal id): 121	8 (≈ 10.3 µM)
isolate (source animal id): 122	8 (≈ 10.3 µM)
isolate (source animal id): 123	8 (≈ 10.3 µM)
isolate (source animal id): 124	> 8
isolate (source animal id): 125	≤ 1
isolate (source animal id): 126	> 8
isolate (source animal id): 127	8 (≈ 10.3 µM)
isolate (source animal id): 128	4 (≈ 5.15 µM)
isolate (source animal id): 129	4 (≈ 5.15 µM)
isolate (source animal id): 130	4 (≈ 5.15 µM)
isolate (source animal id): 131	4 (≈ 5.15 µM)
isolate (source animal id): 132	8 (≈ 10.3 µM)
isolate (source animal id): 133	8 (≈ 10.3 µM)
isolate (source animal id): 134	8 (≈ 10.3 µM)
isolate (source animal id): 135	8 (≈ 10.3 µM)
isolate (source animal id): 136	8 (≈ 10.3 µM)
isolate (source animal id): 137	8 (≈ 10.3 µM)
isolate (source animal id): 138	> 8
isolate (source animal id): 139	> 8
isolate (source animal id): 140	8 (≈ 10.3 µM)
isolate (source animal id): 141	> 8
isolate (source animal id): 142	8 (≈ 10.3 µM)
isolate (source animal id): 143	> 8
isolate (source animal id): 144	> 8
isolate (source animal id): 145	> 8
isolate (source animal id): 146	8 (≈ 10.3 µM)
isolate (source animal id): 147	> 8
isolate (source animal id): 148	8 (≈ 10.3 µM)
isolate (source animal id): 149	8 (≈ 10.3 µM)
isolate (source animal id): 150	> 8
isolate (source animal id): 151	8 (≈ 10.3 µM)
isolate (source animal id): 152	4 (≈ 5.15 µM)
isolate (source animal id): 153	8 (≈ 10.3 µM)
isolate (source animal id): 154	8 (≈ 10.3 µM)
isolate (source animal id): 155	4 (≈ 5.15 µM)
isolate (source animal id): 156	> 8
isolate (source animal id): 157	8 (≈ 10.3 µM)
isolate (source animal id): 158	8 (≈ 10.3 µM)
isolate (source animal id): 159	4 (≈ 5.15 µM)
isolate (source animal id): 160	> 8
isolate (source animal id): 161	> 8
isolate (source animal id): 162	8 (≈ 10.3 µM)
isolate (source animal id): 163	8 (≈ 10.3 µM)
isolate (source animal id): 164	8 (≈ 10.3 µM)
isolate (source animal id): 165	8 (≈ 10.3 µM)
isolate (source animal id): 166	4 (≈ 5.15 µM)
isolate (source animal id): 167	8 (≈ 10.3 µM)
isolate (source animal id): 168	8 (≈ 10.3 µM)
isolate (source animal id): 169	8 (≈ 10.3 µM)
isolate (source animal id): 170	8 (≈ 10.3 µM)
isolate (source animal id): 171	8 (≈ 10.3 µM)
isolate (source animal id): 172	8 (≈ 10.3 µM)
isolate (source animal id): 173	4 (≈ 5.15 µM)
isolate (source animal id): 174	8 (≈ 10.3 µM)
isolate (source animal id): 175	8 (≈ 10.3 µM)
isolate (source animal id): 176	8 (≈ 10.3 µM)
isolate (source animal id): 177	8 (≈ 10.3 µM)
isolate (source animal id): 178	8 (≈ 10.3 µM)
isolate (source animal id): 179	8 (≈ 10.3 µM)
isolate (source animal id): 180	8 (≈ 10.3 µM)
isolate (source animal id): 181	> 8
isolate (source animal id): 182	8 (≈ 10.3 µM)
isolate (source animal id): 183	8 (≈ 10.3 µM)
isolate (source animal id): 184	8 (≈ 10.3 µM)
isolate (source animal id): 185	8 (≈ 10.3 µM)
isolate (source animal id): 186	8 (≈ 10.3 µM)
isolate (source animal id): 187	4 (≈ 5.15 µM)
isolate (source animal id): 188	2 (≈ 2.57 µM)
